The values that follow are results of earlier work, collected in patent publication US9861579B2, “Foamable formulation” (Nuvo Pharmaceuticals Inc., priority 2010, dated 2018).

Each structure is given as a SMILES string.

One may read the log P as the decadic logarithm of the partition coefficient of the neutral form, usually between octanol and water. Consider `CC(C)Cc1ccc(C(C)C(=O)O)cc1` (racemic) [Ibuprofen, 2-(4-isobutylphenyl) propanoic acid], for which the “log P” value was 3.6. The solubility in water (practically insoluble in water) was < 100 µg/mL.
